Each structure is given as a SMILES string. Calls of active or inactive are those of the source. Cut-off read from the data, not from the text of the source, for most assays here: actives have a measured Kd and inactives only a lower limit. A value given as a limit tells only on which side of the number the result lay.

Test [1] addresses T1, Uncharacterized protein FLJ45252 (Homo sapiens, UniProt Q6ZSR9).
T1 sequence (Q6ZSR9 whole entry): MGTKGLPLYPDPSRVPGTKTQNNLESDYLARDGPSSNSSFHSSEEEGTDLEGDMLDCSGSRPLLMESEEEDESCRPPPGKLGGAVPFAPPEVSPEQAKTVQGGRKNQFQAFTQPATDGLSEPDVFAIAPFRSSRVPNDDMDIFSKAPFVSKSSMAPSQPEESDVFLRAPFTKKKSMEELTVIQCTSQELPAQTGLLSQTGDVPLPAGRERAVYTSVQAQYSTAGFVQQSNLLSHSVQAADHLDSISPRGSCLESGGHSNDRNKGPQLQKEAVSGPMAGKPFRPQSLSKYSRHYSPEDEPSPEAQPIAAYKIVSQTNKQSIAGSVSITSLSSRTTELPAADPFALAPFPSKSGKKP
To be noted: read-out: Kd apparent; k-562, colo 205, sk-n-be(2) and mv-4-11.

The target of test [2] is Dual specificity tyrosine-phosphorylation-regulated kinase 1A (Homo sapiens, UniProt Q13627).
Test [3] deals with T2, AarF domain-containing protein kinase 1 (Homo sapiens, UniProt Q86TW2).
T2 sequence (Q86TW2 whole entry): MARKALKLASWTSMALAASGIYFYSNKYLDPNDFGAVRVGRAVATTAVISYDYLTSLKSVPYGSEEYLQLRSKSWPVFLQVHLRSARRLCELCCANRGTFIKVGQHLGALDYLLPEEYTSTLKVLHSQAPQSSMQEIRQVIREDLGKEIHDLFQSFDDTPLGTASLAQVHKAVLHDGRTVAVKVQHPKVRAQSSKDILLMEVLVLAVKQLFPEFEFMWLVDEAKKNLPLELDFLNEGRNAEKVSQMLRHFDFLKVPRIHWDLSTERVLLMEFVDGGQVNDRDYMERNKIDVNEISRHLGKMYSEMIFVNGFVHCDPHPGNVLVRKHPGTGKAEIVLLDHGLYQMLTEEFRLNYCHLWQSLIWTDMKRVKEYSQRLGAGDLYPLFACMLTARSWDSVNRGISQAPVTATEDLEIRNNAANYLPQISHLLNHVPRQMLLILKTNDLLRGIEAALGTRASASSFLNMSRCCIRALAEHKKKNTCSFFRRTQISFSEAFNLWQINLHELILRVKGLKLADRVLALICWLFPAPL

The target in test [4] is Mitogen-activated protein kinase 8 (Homo sapiens, UniProt P45983).
Another test deals with T3, Activin receptor type-1B (Homo sapiens, UniProt P36896).
T3 sequence (P36896 whole entry): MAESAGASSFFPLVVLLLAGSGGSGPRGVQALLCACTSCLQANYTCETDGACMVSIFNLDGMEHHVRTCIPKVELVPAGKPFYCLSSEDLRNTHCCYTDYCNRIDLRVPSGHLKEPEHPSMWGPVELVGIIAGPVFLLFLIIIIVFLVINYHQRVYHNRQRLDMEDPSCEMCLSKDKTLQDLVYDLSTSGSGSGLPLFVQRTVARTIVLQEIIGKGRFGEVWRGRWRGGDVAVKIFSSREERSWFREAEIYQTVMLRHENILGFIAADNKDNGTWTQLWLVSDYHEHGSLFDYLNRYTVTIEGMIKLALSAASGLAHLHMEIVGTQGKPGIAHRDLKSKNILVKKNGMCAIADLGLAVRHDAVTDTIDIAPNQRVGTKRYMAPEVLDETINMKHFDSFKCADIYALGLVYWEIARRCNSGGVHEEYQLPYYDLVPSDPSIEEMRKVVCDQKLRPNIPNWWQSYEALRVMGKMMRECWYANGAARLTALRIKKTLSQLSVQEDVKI

Test [5] addresses Bone morphogenetic protein receptor type-1A (Homo sapiens, UniProt P36894).
For test [6], the target named is Mitotic checkpoint serine/threonine-protein kinase BUB1 (Homo sapiens, UniProt O43683).
Test [7] deals with Cyclin-dependent kinase 12 (Homo sapiens, UniProt Q9NYV4).
Another test deals with Deoxycytidine kinase (Homo sapiens, UniProt P27707).
The next test has as its target T4, Ephrin type-B receptor 3 (Homo sapiens, UniProt P54753).
T4 sequence (P54753 whole entry): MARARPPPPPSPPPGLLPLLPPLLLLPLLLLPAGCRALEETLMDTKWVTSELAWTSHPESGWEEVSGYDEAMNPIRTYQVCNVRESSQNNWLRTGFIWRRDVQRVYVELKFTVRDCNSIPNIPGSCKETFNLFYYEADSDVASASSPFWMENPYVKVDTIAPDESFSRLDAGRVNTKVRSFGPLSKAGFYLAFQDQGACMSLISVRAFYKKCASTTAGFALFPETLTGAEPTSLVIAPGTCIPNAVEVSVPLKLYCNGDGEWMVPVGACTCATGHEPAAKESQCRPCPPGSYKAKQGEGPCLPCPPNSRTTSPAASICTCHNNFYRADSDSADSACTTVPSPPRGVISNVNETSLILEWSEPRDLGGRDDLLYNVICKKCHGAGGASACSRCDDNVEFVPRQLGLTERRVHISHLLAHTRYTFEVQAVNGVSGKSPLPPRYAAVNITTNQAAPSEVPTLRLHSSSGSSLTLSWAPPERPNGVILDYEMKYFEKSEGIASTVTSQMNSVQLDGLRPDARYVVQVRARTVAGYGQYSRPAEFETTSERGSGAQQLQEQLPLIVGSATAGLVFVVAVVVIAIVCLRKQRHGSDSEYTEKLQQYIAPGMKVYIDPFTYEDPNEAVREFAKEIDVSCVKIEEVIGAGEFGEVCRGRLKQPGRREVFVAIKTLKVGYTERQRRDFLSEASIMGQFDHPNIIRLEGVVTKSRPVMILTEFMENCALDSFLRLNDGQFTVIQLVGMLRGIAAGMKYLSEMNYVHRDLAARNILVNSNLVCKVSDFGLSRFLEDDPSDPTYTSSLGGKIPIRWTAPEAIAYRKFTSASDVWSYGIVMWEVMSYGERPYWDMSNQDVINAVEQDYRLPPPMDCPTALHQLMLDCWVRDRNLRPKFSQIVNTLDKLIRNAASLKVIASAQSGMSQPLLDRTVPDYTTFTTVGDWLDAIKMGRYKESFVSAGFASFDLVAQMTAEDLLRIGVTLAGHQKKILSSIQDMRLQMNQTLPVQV

The target in test [8] is Ribosomal protein S6 kinase alpha-5 (Homo sapiens, UniProt O75582).
Test [9] deals with MAP kinase-activated protein kinase 2 (Homo sapiens, UniProt P49137).
Note: in the data inactive means no Kd found up to 30 µM.

Chain of Deoxycytidine kinase (P27707 whole entry): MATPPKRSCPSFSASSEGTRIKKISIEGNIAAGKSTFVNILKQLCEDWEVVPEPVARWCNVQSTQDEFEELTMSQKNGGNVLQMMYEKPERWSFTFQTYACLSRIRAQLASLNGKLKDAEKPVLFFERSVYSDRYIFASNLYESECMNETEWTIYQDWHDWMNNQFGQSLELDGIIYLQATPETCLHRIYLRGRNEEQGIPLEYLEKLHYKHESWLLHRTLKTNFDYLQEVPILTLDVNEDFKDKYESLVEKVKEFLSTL
Chain of Ribosomal protein S6 kinase alpha-5 (O75582 whole entry): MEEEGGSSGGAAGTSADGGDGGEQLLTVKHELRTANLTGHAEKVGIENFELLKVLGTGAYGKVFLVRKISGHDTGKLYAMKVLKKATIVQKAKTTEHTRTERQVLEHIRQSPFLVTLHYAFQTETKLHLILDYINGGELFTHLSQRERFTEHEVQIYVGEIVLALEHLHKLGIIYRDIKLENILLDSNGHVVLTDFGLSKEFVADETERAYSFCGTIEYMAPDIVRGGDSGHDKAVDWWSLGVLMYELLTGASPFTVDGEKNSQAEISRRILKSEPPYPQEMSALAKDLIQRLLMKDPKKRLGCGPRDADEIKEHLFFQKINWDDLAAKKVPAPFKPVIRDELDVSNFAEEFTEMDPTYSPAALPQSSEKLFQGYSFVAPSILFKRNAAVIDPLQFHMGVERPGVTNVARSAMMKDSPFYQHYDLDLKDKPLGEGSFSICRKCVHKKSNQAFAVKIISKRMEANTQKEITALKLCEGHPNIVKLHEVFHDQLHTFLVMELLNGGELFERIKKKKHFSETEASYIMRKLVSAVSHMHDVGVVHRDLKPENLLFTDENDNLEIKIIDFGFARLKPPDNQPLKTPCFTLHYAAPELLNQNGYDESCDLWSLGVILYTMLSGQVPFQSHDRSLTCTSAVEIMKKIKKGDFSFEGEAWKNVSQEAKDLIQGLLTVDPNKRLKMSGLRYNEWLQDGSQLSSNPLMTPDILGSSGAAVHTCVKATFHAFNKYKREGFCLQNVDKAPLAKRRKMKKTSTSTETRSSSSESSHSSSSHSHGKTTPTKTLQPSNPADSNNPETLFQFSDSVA
Chain of Bone morphogenetic protein receptor type-1A (P36894 whole entry): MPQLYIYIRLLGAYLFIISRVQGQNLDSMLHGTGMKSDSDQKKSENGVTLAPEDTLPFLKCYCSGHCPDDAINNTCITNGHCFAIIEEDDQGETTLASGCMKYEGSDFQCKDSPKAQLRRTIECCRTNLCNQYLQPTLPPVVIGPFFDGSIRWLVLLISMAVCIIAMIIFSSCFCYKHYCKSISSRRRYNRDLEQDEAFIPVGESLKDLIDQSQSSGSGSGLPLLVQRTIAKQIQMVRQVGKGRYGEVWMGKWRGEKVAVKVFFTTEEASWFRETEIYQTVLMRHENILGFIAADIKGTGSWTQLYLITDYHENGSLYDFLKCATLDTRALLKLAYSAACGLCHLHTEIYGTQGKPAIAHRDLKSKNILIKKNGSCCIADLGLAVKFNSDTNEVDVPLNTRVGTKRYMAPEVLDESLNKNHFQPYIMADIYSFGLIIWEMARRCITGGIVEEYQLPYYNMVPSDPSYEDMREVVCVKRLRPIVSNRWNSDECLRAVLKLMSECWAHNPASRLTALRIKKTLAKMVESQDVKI
Chain of MAP kinase-activated protein kinase 2 (P49137 whole entry): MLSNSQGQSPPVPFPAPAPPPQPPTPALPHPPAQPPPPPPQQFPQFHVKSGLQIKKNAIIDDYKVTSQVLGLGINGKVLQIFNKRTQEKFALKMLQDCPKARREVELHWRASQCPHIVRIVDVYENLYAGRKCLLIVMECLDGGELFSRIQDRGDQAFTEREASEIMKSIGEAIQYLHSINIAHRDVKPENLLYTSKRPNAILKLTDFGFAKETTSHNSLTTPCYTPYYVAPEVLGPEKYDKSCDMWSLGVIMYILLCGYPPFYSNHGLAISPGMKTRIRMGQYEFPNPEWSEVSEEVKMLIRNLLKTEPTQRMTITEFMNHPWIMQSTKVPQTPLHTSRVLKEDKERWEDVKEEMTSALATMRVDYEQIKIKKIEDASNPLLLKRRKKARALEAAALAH
Chain of Mitogen-activated protein kinase 8 (P45983 whole entry): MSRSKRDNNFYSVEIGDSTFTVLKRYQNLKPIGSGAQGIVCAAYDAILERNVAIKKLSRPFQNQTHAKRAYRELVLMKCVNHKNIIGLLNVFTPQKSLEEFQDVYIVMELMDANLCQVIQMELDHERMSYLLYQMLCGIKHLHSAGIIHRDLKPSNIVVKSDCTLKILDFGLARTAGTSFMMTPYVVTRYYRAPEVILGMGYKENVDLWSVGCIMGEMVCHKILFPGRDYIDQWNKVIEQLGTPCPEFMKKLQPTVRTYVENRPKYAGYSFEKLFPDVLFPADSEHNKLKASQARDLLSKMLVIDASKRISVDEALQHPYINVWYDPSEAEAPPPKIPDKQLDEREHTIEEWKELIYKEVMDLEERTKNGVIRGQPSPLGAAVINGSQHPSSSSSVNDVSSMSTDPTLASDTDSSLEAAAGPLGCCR
Chain of Cyclin-dependent kinase 12 (Q9NYV4 whole entry): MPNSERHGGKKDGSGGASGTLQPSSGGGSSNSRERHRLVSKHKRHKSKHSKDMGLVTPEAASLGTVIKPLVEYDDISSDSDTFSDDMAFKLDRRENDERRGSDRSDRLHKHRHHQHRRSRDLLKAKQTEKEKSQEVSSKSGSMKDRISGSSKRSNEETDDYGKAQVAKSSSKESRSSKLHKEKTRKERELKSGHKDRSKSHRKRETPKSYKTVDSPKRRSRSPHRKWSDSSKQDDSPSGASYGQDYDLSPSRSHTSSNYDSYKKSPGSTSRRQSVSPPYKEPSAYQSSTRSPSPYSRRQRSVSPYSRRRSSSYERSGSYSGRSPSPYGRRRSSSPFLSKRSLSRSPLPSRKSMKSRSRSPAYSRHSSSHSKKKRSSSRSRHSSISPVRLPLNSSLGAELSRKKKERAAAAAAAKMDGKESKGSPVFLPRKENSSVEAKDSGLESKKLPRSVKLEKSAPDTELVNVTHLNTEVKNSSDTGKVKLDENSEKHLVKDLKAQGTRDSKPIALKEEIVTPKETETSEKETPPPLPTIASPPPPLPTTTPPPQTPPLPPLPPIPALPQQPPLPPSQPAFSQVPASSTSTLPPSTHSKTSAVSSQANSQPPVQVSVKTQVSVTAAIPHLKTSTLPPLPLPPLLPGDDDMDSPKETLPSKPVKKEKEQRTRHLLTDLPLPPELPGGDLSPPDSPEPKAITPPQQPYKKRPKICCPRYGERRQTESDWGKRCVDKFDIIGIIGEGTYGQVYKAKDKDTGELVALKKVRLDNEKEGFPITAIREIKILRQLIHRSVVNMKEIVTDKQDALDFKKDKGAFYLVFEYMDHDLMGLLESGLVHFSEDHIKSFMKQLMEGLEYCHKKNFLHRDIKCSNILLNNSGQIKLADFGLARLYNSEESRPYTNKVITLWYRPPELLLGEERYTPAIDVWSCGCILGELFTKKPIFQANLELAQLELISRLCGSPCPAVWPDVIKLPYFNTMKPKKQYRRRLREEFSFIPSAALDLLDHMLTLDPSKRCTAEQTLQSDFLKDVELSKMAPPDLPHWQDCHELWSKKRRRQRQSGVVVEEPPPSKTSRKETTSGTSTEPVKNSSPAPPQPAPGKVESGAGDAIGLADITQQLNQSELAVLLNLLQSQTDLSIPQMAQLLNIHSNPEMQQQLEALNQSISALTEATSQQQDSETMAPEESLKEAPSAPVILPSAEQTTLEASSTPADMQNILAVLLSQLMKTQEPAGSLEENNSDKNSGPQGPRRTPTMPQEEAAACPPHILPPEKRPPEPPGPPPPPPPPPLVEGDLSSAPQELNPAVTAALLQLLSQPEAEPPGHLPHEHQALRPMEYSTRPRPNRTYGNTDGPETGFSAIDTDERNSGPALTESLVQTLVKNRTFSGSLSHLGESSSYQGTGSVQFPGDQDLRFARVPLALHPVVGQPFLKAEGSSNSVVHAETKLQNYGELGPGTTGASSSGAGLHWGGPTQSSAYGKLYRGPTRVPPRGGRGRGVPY
Chain of Mitotic checkpoint serine/threonine-protein kinase BUB1 (O43683 whole entry): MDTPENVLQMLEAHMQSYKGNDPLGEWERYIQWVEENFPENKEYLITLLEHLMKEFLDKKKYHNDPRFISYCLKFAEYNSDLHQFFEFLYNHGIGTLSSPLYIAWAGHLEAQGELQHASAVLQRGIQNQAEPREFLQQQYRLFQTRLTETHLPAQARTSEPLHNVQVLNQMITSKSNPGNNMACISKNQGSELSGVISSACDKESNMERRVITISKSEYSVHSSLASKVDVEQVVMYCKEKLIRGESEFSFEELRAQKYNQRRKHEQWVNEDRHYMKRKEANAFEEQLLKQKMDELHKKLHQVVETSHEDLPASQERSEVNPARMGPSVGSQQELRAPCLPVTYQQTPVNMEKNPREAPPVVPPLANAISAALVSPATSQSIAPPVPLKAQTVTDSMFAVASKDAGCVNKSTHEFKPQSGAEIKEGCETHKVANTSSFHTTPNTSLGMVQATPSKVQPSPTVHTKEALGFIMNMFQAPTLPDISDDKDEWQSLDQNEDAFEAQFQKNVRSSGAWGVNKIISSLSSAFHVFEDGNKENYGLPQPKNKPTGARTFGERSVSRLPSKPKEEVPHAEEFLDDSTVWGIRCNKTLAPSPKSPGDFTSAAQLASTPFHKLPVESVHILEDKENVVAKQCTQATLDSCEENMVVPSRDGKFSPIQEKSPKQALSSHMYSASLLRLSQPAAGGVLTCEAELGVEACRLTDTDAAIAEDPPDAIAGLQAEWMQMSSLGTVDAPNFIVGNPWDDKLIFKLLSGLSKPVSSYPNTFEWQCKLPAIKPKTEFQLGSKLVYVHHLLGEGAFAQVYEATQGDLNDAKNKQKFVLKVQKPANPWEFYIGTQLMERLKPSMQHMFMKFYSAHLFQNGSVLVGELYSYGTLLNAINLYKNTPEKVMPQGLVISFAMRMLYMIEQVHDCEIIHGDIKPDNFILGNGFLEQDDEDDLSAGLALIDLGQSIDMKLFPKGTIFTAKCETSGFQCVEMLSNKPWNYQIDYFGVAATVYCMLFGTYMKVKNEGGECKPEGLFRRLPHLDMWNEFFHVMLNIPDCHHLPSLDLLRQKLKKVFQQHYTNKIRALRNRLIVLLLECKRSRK

Take `C=CC(=O)N1CCC[C@H](n2c(=O)n(-c3ccc(Oc4ccccc4)cc3)c3c(N)ncnc32)C1`: the Kd (in [1]; in test [2]; in test [3]; in test [4]; at Activin receptor type-1B; in test [5]) was > 30 µM (inactive) each time. Moreover, the Kd (in test [6]; in test [7]; on Deoxycytidine kinase; at Ephrin type-B receptor 3; in test [8]; in [9]) was > 30 µM (inactive) each time.

For `COCc1c(-c2ccc(NC(=O)Nc3cc(C(F)(F)F)ccc3F)c(F)c2)c2c(N)ncnn2c1CN1CCOCC1`, the Kd (in [1]; in test [2]; in test [3]; in [4]; on Activin receptor type-1B; in test [5]) was > 30 µM (inactive) each time. Also, the Kd (in test [6]; in [7]; at Deoxycytidine kinase; on Ephrin type-B receptor 3; in [8]; in test [9]) was > 30 µM (inactive) in each case.

In the case of `CCn1c(C(=O)N(C2CC2)C2CC2)cc2c3c(ncn3C)c(Nc3cc(C)n(C)n3)nc21` [BMS-911543], the Kd (in test [1]; in test [2]; in [3]; in [4]; on Activin receptor type-1B; in [5]) was > 30 µM (inactive) throughout. In addition, the Kd (in test [6]; in [7]; at Deoxycytidine kinase; at Ephrin type-B receptor 3; in test [8]; in test [9]) was > 30 µM (inactive) each time.

`Cc1nc2cc(-n3ncc(C(=O)c4cc5ccccc5[nH]4)c3N)ccc2[nH]1` [FGFR INHIBITOR DEBIO 1347]: the Kd (in test [1]; in test [2]; in [3]; in test [4]; on Activin receptor type-1B; in [5]) was > 30 µM (inactive) each time. Besides, the Kd in test [6] was > 30 µM (inactive); in test [7] it was > 30 µM (inactive); at Deoxycytidine kinase it was > 30 µM (inactive); at Ephrin type-B receptor 3, > 30 µM (inactive); in [8] it was > 30 µM (inactive); in [9] it was 0.018 µM.

Take `NC1(c2ccc(-c3nc4ccn5c(=O)[nH]nc5c4cc3-c3ccccc3)cc2)CCC1` [MK-2206]: the Kd (in test [1]; in test [2]; in [3]; in [4]; on Activin receptor type-1B; in test [5]) was > 30 µM (inactive) in each case. The Kd (in [6]; in [7]; at Deoxycytidine kinase; at Ephrin type-B receptor 3; in test [8]; in [9]) was > 30 µM (inactive) each time.

Take `N#CC1(c2ccc(NC(=O)c3cccnc3NCc3ccncc3)cc2)CCCC1` [RIVOCERANIB]: the Kd (in test [1]; in test [2]; in test [3]; in test [4]; on Activin receptor type-1B; in [5]) was > 30 µM (inactive) each time. The Kd (in test [6]; in [7]; on Deoxycytidine kinase; on Ephrin type-B receptor 3; in [8]; in [9]) was > 30 µM (inactive) throughout.

Take `Cn1cc(-c2cnn3c(N)c(Br)c([C@@H]4CCCNC4)nc23)cn1` [SCH-900776]: the Kd (in [1]; in [2]; in [3]; in [4]; on Activin receptor type-1B; in test [5]) was > 30 µM (inactive) in each case. Besides, the Kd (in test [6]; in test [7]; on Deoxycytidine kinase; at Ephrin type-B receptor 3; in test [8]; in test [9]) was > 30 µM (inactive) each time.

For the molecule `CO[C@H]1C[C@@H]2CC[C@@H](C)[C@@](O)(O2)C(=O)C(=O)N2CCCC[C@H]2C(=O)O[C@H]([C@H](C)C[C@@H]2CC[C@@H](O)[C@H](OC)C2)CC(=O)[C@H](C)/C=C(\C)[C@@H](O)[C@@H](OC)C(=O)[C@H](C)C[C@H](C)/C=C/C=C/C=C/1C` [SIROLIMUS], the Kd (in [1]; in [2]; in test [3]; in [4]; on Activin receptor type-1B; in [5]) was > 30 µM (inactive) each time. Also, the Kd (in test [6]; in test [7]; at Deoxycytidine kinase; at Ephrin type-B receptor 3; in test [8]; in test [9]) was > 30 µM (inactive) each time.

(Values after ChEMBL document CHEMBL3991601, “The target landscape of clinical kinase drugs” (Science, 2017).)
